The values that follow come from patent US20260070945A1, “MACROCYCLIC IMMUNOMODULATORS” (Bristol-Myers Squibb Company, priority 2022, published 2026).

Each structure is given as a SMILES string. Where a SMILES comes first, the peptide text is derived from it. Bridges are numbered along the chain shown (N, C = ends). [ ]: non-standard residue; d: D form. The star is where a group is joined. Phe(4-CH2CH2COOH) = N[C@@H](Cc1ccc(CCC(=O)O)cc1)C(=O)O; Bip = N[C@@H](Cc1ccc(-c2ccccc2)cc1)C(=O)O; Phe(3-Me) = Cc1cccc(C[C@H](N)C(=O)O)c1; mTyr = N[C@@H](Cc1cccc(O)c1)C(=O)O; Cha = N[C@@H](CC1CCCCC1)C(=O)O; Carboxymethyl = O=C(O)C*; NMeA = CN[C@@H](C)C(=O)O; Orn = NCCC[C@H](N)C(=O)O; Aun = NCCCCCCCCCCC(=O)O; Dab = NCC[C@H](N)C(=O)O; Dap = NC[C@H](N)C(=O)O

T1 sequence (Q15116 25-288): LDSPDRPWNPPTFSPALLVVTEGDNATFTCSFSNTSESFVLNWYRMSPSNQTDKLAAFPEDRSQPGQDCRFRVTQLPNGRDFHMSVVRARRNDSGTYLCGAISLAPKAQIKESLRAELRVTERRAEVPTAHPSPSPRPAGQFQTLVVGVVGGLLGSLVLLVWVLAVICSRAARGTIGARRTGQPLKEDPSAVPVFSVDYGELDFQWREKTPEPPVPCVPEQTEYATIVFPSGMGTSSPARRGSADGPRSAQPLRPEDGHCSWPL

This experiment addresses T1, PD-1/PD-L1 interaction (PE-labeled human PD-L1-Ig binding to Jurkat cell line over-expressing human PD-1) (Homo sapiens, UniProt Q15116).
T1 construct: expressed in transfected cells; host or cells: Jurkat
Description: Jurkat-PD-1 Cell Binding High-Content Screening Assay (CBA). Conditions: Jurkat-hPD-1 cells, PE-labeled PD-L1-Ig 20 nM final; read-out: Jurkat HPD1 PDL1 IC50. Summed up:
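High-content imaging read-out of PE-PD-L1-Ig binding (20 nM final, 1 h) to Jurkat-hPD-1 cells, after 2 h compound exposure at 37 °C in DMEM with 10% FCS. Nuclei counterstained with Hoechst 33342 after paraformaldehyde fixation.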
Regarding `Cc1cccc(C[C@@H]2NC(=O)[C@H](CC(=O)O)NC(=O)[C@H](Cc3ccc(OCC(=O)O)cc3)NC(=O)[C@H](CN)NC(=O)CSC[C@@H](C(=O)N[C@@H](CCN)C(=O)NCCCCCCCCCCC(=O)O)NC(=O)[C@H](CCCN)NC(=O)[C@H](C(C)C)NC(=O)[C@H](CC(C)C)NC(=O)[C@H](CCN)NC(=O)[C@@H](CC(C)C)NC(=O)[C@H](C)N(C)C(=O)[C@H](Cc3ccc(O)cc3)NC(=O)[C@H](Cc3ccc(-c4ccccc4)cc3)NC(=O)[C@H](Cc3ccc(O)cc3)NC2=O)c1` [Example 1255] ({CH2CO}-[Dap]Y(Carboxymethyl)D[Phe(3-Me)]Y[Bip]Y[NMeA][dL][Dab]LV[Orn]C[Dab][Aun]-OH; thioether N-14), the IC50 (as a rule, the midpoint of a concentration-inhibition curve) was 206 nM.
With `CC(C)[C@@H]1NC(=O)[C@H](CC2CCCCC2)NC(=O)[C@H](CCN)NC(=O)[C@@H](C)NC(=O)[C@H](C)N(C)C(=O)[C@H](Cc2ccc(O)cc2)NC(=O)[C@H](Cc2ccc(-c3ccccc3)cc2)NC(=O)[C@H](Cc2ccc(O)cc2)NC(=O)[C@H](Cc2cccc(O)c2)NC(=O)[C@H](CC(=O)O)NC(=O)[C@H](Cc2ccc(OCC(=O)O)cc2)NC(=O)[C@H](CN)NC(=O)CSC[C@@H](C(=O)N[C@@H](CCN)C(=O)NCCCCCCCCCCC(=O)O)NC(=O)[C@H](CCCN)NC1=O` [Example 1256] ({CH2CO}-[Dap]Y(Carboxymethyl)D[mTyr]Y[Bip]Y[NMeA][dA][Dab][Cha]V[Orn]C[Dab][Aun]-OH; thioether N-14), the IC50 was determined as 502 nM.
As for `CC(C)C[C@H]1NC(=O)[C@H](C)N(C)C(=O)[C@H](Cc2ccc(O)cc2)NC(=O)[C@H](Cc2ccc(-c3ccccc3)cc2)NC(=O)[C@H](Cc2ccc(O)cc2)NC(=O)[C@H](Cc2cccc(O)c2)NC(=O)[C@H](CC(=O)O)NC(=O)[C@H](Cc2ccc(OCC(=O)O)cc2)NC(=O)[C@H](CN)NC(=O)CSC[C@@H](C(=O)N[C@@H](CCN)C(=O)NCCCCCCCCCCC(=O)O)NC(=O)[C@H](CCCN)NC(=O)[C@H](C(C)C)NC(=O)[C@H](CC2CCCCC2)NC(=O)[C@H](CCN)NC1=O` [Example 1257] ({CH2CO}-[Dap]Y(Carboxymethyl)D[mTyr]Y[Bip]Y[NMeA][dL][Dab][Cha]V[Orn]C[Dab][Aun]-OH; thioether N-14), the figure is 226 nM.
Then `Cc1cccc(C[C@@H]2NC(=O)[C@H](CC(=O)O)NC(=O)[C@H](Cc3ccc(OCC(=O)O)cc3)NC(=O)[C@H](CN)NC(=O)CSC[C@@H](C(=O)N[C@@H](CCN)C(=O)NCCCCCCCCCCC(=O)O)NC(=O)[C@H]([C@@H](C)O)NC(=O)[C@H](C(C)C)NC(=O)[C@H](CC3CCCCC3)NC(=O)[C@H](CCN)NC(=O)[C@@H](CC(C)C)NC(=O)[C@H](C)N(C)C(=O)[C@H](Cc3ccc(O)cc3)NC(=O)[C@H](Cc3ccc(-c4ccccc4)cc3)NC(=O)[C@H](Cc3ccc(OCC(=O)O)cc3)NC2=O)c1` [Example 1258] ({CH2CO}-[Dap]Y(Carboxymethyl)D[Phe(3-Me)]Y(Carboxymethyl)[Bip]Y[NMeA][dL][Dab][Cha]VTC[Dab][Aun]-OH; thioether N-14), with 19 nM; and `Cc1cccc(C[C@@H]2NC(=O)[C@H](CC(=O)O)NC(=O)[C@H](Cc3ccc(OCC(=O)O)cc3)NC(=O)[C@H](CN)NC(=O)CSC[C@@H](C(=O)N[C@@H](CCN)C(=O)NCCCCCCCCCCC(=O)O)NC(=O)[C@H](CO)NC(=O)[C@H](C(C)C)NC(=O)[C@H](CC3CCCCC3)NC(=O)[C@H](CCN)NC(=O)[C@@H](CC(C)C)NC(=O)[C@H](C)N(C)C(=O)[C@H](Cc3ccc(O)cc3)NC(=O)[C@H](Cc3ccc(-c4ccccc4)cc3)NC(=O)[C@H](Cc3ccc(OCC(=O)O)cc3)NC2=O)c1` [Example 1259] ({CH2CO}-[Dap]Y(Carboxymethyl)D[Phe(3-Me)]Y(Carboxymethyl)[Bip]Y[NMeA][dL][Dab][Cha]VSC[Dab][Aun]-OH; thioether N-14), with 14.9 nM.
As for `Cc1cccc(C[C@@H]2NC(=O)[C@H](CC(=O)O)NC(=O)[C@H](Cc3ccc(OCC(=O)O)cc3)NC(=O)[C@H](CN)NC(=O)CSC[C@@H](C(=O)N[C@@H](CCN)C(=O)NCCCCCCCCCCC(=O)O)NC(=O)[C@H]([C@@H](C)O)NC(=O)[C@H](C(C)C)NC(=O)[C@H](CC3CCCCC3)NC(=O)[C@H](CCN)NC(=O)[C@@H](CC(C)C)NC(=O)[C@H](C)N(C)C(=O)[C@H](Cc3ccc(OCC(=O)O)cc3)NC(=O)[C@H](Cc3ccc(-c4ccccc4)cc3)NC(=O)[C@H](C(C)C)NC2=O)c1` [Example 1260] ({CH2CO}-[Dap]Y(Carboxymethyl)D[Phe(3-Me)]V[Bip]Y(Carboxymethyl)[NMeA][dL][Dab][Cha]VTC[Dab][Aun]-OH; thioether N-14), the figure is 10.4 nM; as for `Cc1cccc(C[C@@H]2NC(=O)[C@H](CC(=O)O)NC(=O)[C@H](Cc3ccc(OCC(=O)O)cc3)NC(=O)[C@H](CN)NC(=O)CSC[C@@H](C(=O)N[C@@H](CCN)C(=O)NCCCCCCCCCCC(=O)O)NC(=O)[C@H](CO)NC(=O)[C@H](C(C)C)NC(=O)[C@H](CC3CCCCC3)NC(=O)[C@H](CCN)NC(=O)[C@@H](CC(C)C)NC(=O)[C@H](C)N(C)C(=O)[C@H](Cc3ccc(OCC(=O)O)cc3)NC(=O)[C@H](Cc3ccc(-c4ccccc4)cc3)NC(=O)[C@H](C(C)C)NC2=O)c1` [Example 1261] ({CH2CO}-[Dap]Y(Carboxymethyl)D[Phe(3-Me)]V[Bip]Y(Carboxymethyl)[NMeA][dL][Dab][Cha]VSC[Dab][Aun]-OH; thioether N-14), 16.6 nM.
In the case of `Cc1cccc(C[C@@H]2NC(=O)[C@H](CC(=O)O)NC(=O)[C@H](Cc3ccc(OCC(=O)O)cc3)NC(=O)[C@H](CN)NC(=O)CSC[C@@H](C(=O)N[C@@H](CCN)C(=O)NCCCCCCCCCCC(=O)O)NC(=O)[C@H]([C@@H](C)O)NC(=O)[C@H](C(C)C)NC(=O)[C@H](CC3CCCCC3)NC(=O)[C@H](CCN)NC(=O)[C@@H](CC(C)C)NC(=O)[C@H](C)N(C)C(=O)[C@H](Cc3ccc(OCC(=O)O)cc3)NC(=O)[C@H](Cc3ccc(-c4ccccc4)cc3)NC(=O)[C@H](Cc3ccc(CCC(=O)O)cc3)NC2=O)c1` [Example 1262] ({CH2CO}-[Dap]Y(Carboxymethyl)D[Phe(3-Me)][Phe(4-CH2CH2COOH)][Bip]Y(Carboxymethyl)[NMeA][dL][Dab][Cha]VTC[Dab][Aun]-OH; thioether N-14), the concentration for half-maximal inhibition (IC50) amounted to 8.9 nM.
As for `Cc1cccc(C[C@@H]2NC(=O)[C@H](CC(=O)O)NC(=O)[C@H](Cc3ccc(OCC(=O)O)cc3)NC(=O)[C@H](CN)NC(=O)CSC[C@@H](C(=O)N[C@@H](CCN)C(=O)NCCCCCCCCCCC(=O)O)NC(=O)[C@H](CO)NC(=O)[C@H](C(C)C)NC(=O)[C@H](CC3CCCCC3)NC(=O)[C@H](CCN)NC(=O)[C@@H](CC(C)C)NC(=O)[C@H](C)N(C)C(=O)[C@H](Cc3ccc(OCC(=O)O)cc3)NC(=O)[C@H](Cc3ccc(-c4ccccc4)cc3)NC(=O)[C@H](Cc3ccc(OCC(=O)O)cc3)NC2=O)c1` [Example 1263] ({CH2CO}-[Dap]Y(Carboxymethyl)D[Phe(3-Me)]Y(Carboxymethyl)[Bip]Y(Carboxymethyl)[NMeA][dL][Dab][Cha]VSC[Dab][Aun]-OH; thioether N-14), the figure is 12.7 nM; as for `Cc1cccc(C[C@@H]2NC(=O)[C@H](CC(=O)O)NC(=O)[C@H](Cc3ccc(OCC(=O)O)cc3)NC(=O)[C@H](Cc3ccc(OCC(=O)O)cc3)NC(=O)CSC[C@@H](C(=O)N[C@@H](CCN)C(=O)NCCCCCCCCCCC(=O)O)NC(=O)[C@H]([C@@H](C)O)NC(=O)[C@H](C(C)C)NC(=O)[C@H](CC3CCCCC3)NC(=O)[C@H](CCN)NC(=O)[C@@H](CC(C)C)NC(=O)[C@H](C)N(C)C(=O)[C@H](Cc3ccc(OCC(=O)O)cc3)NC(=O)[C@H](Cc3ccc(-c4ccccc4)cc3)NC(=O)[C@H](C(C)C)NC2=O)c1` [Example 1264] ({CH2CO}-Y(Carboxymethyl)Y(Carboxymethyl)D[Phe(3-Me)]V[Bip]Y(Carboxymethyl)[NMeA][dL][Dab][Cha]VTC[Dab][Aun]-OH; thioether N-14), 31.8 nM.
Then `Cc1cccc(C[C@@H]2NC(=O)[C@H](CC(=O)O)NC(=O)[C@H](Cc3ccc(OCC(=O)O)cc3)NC(=O)[C@H](Cc3ccc(OCC(=O)O)cc3)NC(=O)CSC[C@@H](C(=O)N[C@@H](CCN)C(=O)NCCCCCCCCCCC(=O)O)NC(=O)[C@H](CO)NC(=O)[C@H](C(C)C)NC(=O)[C@H](CC3CCCCC3)NC(=O)[C@H](CCN)NC(=O)[C@@H](CC(C)C)NC(=O)[C@H](C)N(C)C(=O)[C@H](Cc3ccc(OCC(=O)O)cc3)NC(=O)[C@H](Cc3ccc(-c4ccccc4)cc3)NC(=O)[C@H](C(C)C)NC2=O)c1` [Example 1265] ({CH2CO}-Y(Carboxymethyl)Y(Carboxymethyl)D[Phe(3-Me)]V[Bip]Y(Carboxymethyl)[NMeA][dL][Dab][Cha]VSC[Dab][Aun]-OH; thioether N-14), with 44.1 nM.
As for `Cc1cccc(C[C@@H]2NC(=O)[C@H](CC(=O)O)NC(=O)[C@H](Cc3ccc(OCC(=O)O)cc3)NC(=O)[C@H](CCCNC(=N)N)NC(=O)CSC[C@@H](C(=O)N[C@@H](CCN)C(=O)NCCCCCCCCCCC(=O)O)NC(=O)[C@@H](CO)NC(=O)[C@H](C(C)C)NC(=O)[C@H](CC3CCCCC3)NC(=O)[C@H](CCN)NC(=O)[C@@H](CC(C)C)NC(=O)[C@H](C)N(C)C(=O)[C@H](Cc3ccc(OCC(=O)O)cc3)NC(=O)[C@H](Cc3ccc(-c4ccccc4)cc3)NC(=O)[C@H](C(C)C)NC2=O)c1` [Example 1266] ({CH2CO}-RY(Carboxymethyl)D[Phe(3-Me)]V[Bip]Y(Carboxymethyl)[NMeA][dL][Dab][Cha]V[dS]C[Dab][Aun]-OH; thioether N-14), the figure is 26.6 nM; as for `Cc1cccc(C[C@@H]2NC(=O)[C@H](CC(=O)O)NC(=O)[C@H](Cc3ccc(CCC(=O)O)cc3)NC(=O)[C@H](CCCNC(=N)N)NC(=O)CSC[C@@H](C(=O)N[C@@H](CCN)C(=O)NCCCCCCCCCCC(=O)O)NC(=O)[C@@H](CO)NC(=O)[C@H](C(C)C)NC(=O)[C@H](CC3CCCCC3)NC(=O)[C@H](CCN)NC(=O)[C@@H](CC(C)C)NC(=O)[C@H](C)N(C)C(=O)[C@H](Cc3ccc(O)cc3)NC(=O)[C@H](Cc3ccc(-c4ccccc4)cc3)NC(=O)[C@H](C(C)C)NC2=O)c1` [Example 1267] ({CH2CO}-R[Phe(4-CH2CH2COOH)]D[Phe(3-Me)]V[Bip]Y[NMeA][dL][Dab][Cha]V[dS]C[Dab][Aun]-OH; thioether N-14), 22.8 nM.
